Patent publication US20030032000A1, “Method for analyzing cellular events” (Signature BioScience Inc., priority 2001, published 2003)

Experiments:
CHOk1 cells = assay: MCS cellular activity assay in un-transfected CHOk1 wild-type cells; conditions: various concentrations of carbachol, signal integrated over 50 MHz to 1 GHz
calcium flux = assay: MCS detection of calcium flux modifiers in wild-type and transfected cells; format: cell-based, Chinese Hampster
Protocol: Ability to detect other calcium flux modifies was tested using ionomycin (an ionophore).

## C[N+](C)(C)CCOC(N)=O [carbachol]
CHOk1 cells
  integrated MCS signal over time versus buffer: essentially no change in signal over time

## C/C=C(/C)C(=O)O[C@H]1C(C)=C2[C@H]([C@@H]1OC(=O)CCCCCCC)[C@@](C)(OC(C)=O)C[C@H](OC(=O)CCC)[C@@]1(O)[C@H]2OC(=O)[C@@]1(C)O [thapsigargin]
Calcium flux
  inhibition of ionomycin effect, MCS: inhibit ionomycin
